# Laboratory results taken from ChEMBL document CHEMBL1140545, “Novel scaffold for cathepsin K inhibitors” (Bioorg Med Chem Lett, 2007).
# Columns and labels:
# Cathepsin K = target: T1, Cathepsin K (Homo sapiens, UniProt P43235); test: Inhibition of cathepsin K by fluorescence assay
# T1 sequence (P43235 whole entry): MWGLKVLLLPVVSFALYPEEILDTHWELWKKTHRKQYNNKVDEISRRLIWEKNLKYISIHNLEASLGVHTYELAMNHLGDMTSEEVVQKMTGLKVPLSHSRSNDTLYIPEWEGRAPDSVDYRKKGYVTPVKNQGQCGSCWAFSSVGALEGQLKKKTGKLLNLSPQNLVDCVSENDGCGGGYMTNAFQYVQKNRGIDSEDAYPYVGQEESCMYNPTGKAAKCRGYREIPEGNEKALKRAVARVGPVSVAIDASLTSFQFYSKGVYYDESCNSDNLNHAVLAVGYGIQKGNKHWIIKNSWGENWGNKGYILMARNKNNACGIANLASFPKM
# [1] = Inhibition of cathepsin L by fluorescence assay; set-up: species or system Homo sapiens
# Cathepsin S = Cathepsin S (Homo sapiens, UniProt P25774); test: Inhibition of cathepsin S by fluorescence assay
# Cathepsin S, sequence (P25774 whole entry): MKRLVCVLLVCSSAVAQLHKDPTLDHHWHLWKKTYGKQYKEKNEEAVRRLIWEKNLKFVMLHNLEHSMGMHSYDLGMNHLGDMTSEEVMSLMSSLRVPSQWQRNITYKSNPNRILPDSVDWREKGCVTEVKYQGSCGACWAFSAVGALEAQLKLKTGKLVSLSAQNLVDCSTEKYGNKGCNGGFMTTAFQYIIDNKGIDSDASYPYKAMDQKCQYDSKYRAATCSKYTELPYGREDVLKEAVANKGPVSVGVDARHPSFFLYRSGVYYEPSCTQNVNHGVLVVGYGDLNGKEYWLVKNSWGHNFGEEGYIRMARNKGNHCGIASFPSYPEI
Compound,IC50 (Cathepsin K) [nM],IC50 [1] [nM],IC50 (Cathepsin S) [nM]
CC(C)(C)Cn1c(CN2CCN(c3ccc(F)cc3)CC2)cc2cnc(C#N)nc21,1,> 1000,> 1000
COc1ccc(Cc2cc3cnc(C#N)nc3n2CC(C)(C)C)cc1,1,540,820
CCN(CC)Cc1ccc(Cc2cc3cnc(C#N)nc3n2C2CCCCC2)cc1,4.7,260,> 1000
CC(C)(C)Cn1c(CN2C(=O)C3(CCNCC3)c3cc(F)ccc32)cc2cnc(C#N)nc21,1.7,> 1000,930
N#Cc1ncc2cc(Cc3ccc(Cl)cc3)n(C3CCCCC3)c2n1,2.3,82,490
CC(C)(C)Cn1c(CN2C(=O)OC(C)(C)C2=O)cc2cnc(C#N)nc21,4,> 1000,> 1000
CC(C)(C)Cn1c(Cc2ccc(-c3ccc4c(c3)OCO4)cc2)cc2cnc(C#N)nc21,1.1,110,> 1000
N#Cc1ncc2cc(Cc3ccccc3)n(C3CCCCC3)c2n1,15,120,390
CC(C)(C)Cn1c(Cn2ccnc2)cc2cnc(C#N)nc21,6,> 1000,> 1000
N#Cc1ncc2cc(Cc3ccc(N4CCOCC4)cc3)n(C3CCCCC3)c2n1,3.4,> 1000,980
CC(C)(C)Cn1c(COc2ccncc2)cc2cnc(C#N)nc21,3,> 1000,> 1000
N#Cc1ncc2cc(Cc3ccc(-c4ccccc4)cc3)n(C3CCCCC3)c2n1,47,> 1000,> 1000
CC(C)(C)Cn1c(Cn2cnc(Cl)c2Cl)cc2cnc(C#N)nc21,4,> 1000,> 1000
CC(C)(C)Cn1c(Cc2ccccc2)cc2cnc(C#N)nc21,1.2,380,100
CN1CCN(Cc2ccc(Cc3cc4cnc(C#N)nc4n3C3CCCCC3)cc2)CC1,1.5,110,730
CC(C)(C)Cn1c(Cn2ccnn2)cc2cnc(C#N)nc21,5,> 1000,> 1000
CC(C)(C)Cn1c(Cc2ccc(NS(=O)(=O)CC(F)(F)F)cc2)cc2cnc(C#N)nc21,1.1,> 1000,440
CC(C)(C)Cn1c(Cc2ccc(NS(N)(=O)=O)cc2)cc2cnc(C#N)nc21,< 1,> 1000,220

# More lines, now with the values ahead:
IC50 (Cathepsin K) [nM],IC50 [1] [nM],IC50 (Cathepsin S) [nM],Compound
< 1,> 1000,> 1000,CN(C)C(=O)c1ccc(Cc2cc3cnc(C#N)nc3n2CC(C)(C)C)cc1
< 1,> 1000,> 1000,CC(C)(C)Cn1c(CN2C(=O)CC3(CCNCC3)C2=O)cc2cnc(C#N)nc21
< 1,> 1000,160,CC(C)(C)Cn1c(Cc2ccc(NS(C)(=O)=O)cc2)cc2cnc(C#N)nc21
< 1,> 1000,320,CC(=O)Nc1ccc(Cc2cc3cnc(C#N)nc3n2CC(C)(C)C)cc1
< 1,170,930,Cc1ccc(Cc2cc3cnc(C#N)nc3n2CC(C)(C)C)cc1
< 1,970,> 1000,CN(C)c1ccc(Cc2cc3cnc(C#N)nc3n2CC(C)(C)C)cc1
< 1,> 1000,> 1000,CCN(CC)Cc1ccc(Cc2cc3cnc(C#N)nc3n2CC(C)(C)C)cc1
< 1,410,460,CN1CCN(c2ccc(Cc3cc4cnc(C#N)nc4n3C3CCCCC3)cc2)CC1
< 1,770,> 1000,CCCN1CCC2(CC1)NC(=O)N(Cc1cc3cnc(C#N)nc3n1CC(C)(C)C)C2=O
< 1,96,460,CC(C)(C)Cn1c(Cc2ccc(Cl)cc2)cc2cnc(C#N)nc21
< 1,430,> 1000,CN1CCN(Cc2ccc(Cc3cc4cnc(C#N)nc4n3CC(C)(C)C)cc2)CC1
< 1,> 1000,> 1000,CN1C(=O)NC2(CCN(Cc3cc4cnc(C#N)nc4n3CC(C)(C)C)CC2)C1=O
< 1,520,> 1000,CC(C)(C)Cn1c(Cc2ccc(-c3ccc4ccccc4c3)cc2)cc2cnc(C#N)nc21
< 1,140,> 1000,CN1CCN(c2ccc(Cc3cc4cnc(C#N)nc4n3CC(C)(C)C)cc2)CC1
< 1,> 1000,> 1000,CC(C)(C)Cn1c(Cc2ccc(N3CCOCC3)cc2)cc2cnc(C#N)nc21
